“And” between values parts separate entries of the source, which are not always exact repeats. Equal values may be shown once. Toxic doses and inconclusive results are not listed. Rule for the calls: active = survival T/C of 150% or more; inactive = T/C below 125% in these data.
Test system: P388 leukemia ip, CD2F1 mice, survival T/C
Test: NCI In Vivo Anticancer Drug Screen. Data for tumor model P388 Leukemia (intraperitoneal) in CD2F1 (CDF1) mice
Conditions: endpoint: median survival time, higher = longer survival
Procedure, shortened: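 Mice carrying the transplanted tumor received test compound or vehicle. Survival was recorded in each group, and the value is the treated-group measurement divided by that of the vehicle-treated control group.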

[1] = dose: 100.0 mg/kg/injection, schedule: Q01DX009 (ip), vehicle: saline with Tween-80
[2] = dose: 200.0 mg/kg/injection, schedule: Q01DX009 (ip), vehicle: saline with Tween-80
[3] = dose: 50.0 mg/kg/injection, schedule: Q01DX009 (ip), vehicle: saline with Tween-80
[4] = dose: 60.0 mg/kg/injection, schedule: Q01DX005 (ip), vehicle: Klucel (hydroxypropylcellulose) (HPC)
[5] = dose: 120.0 mg/kg/injection, schedule: Q01DX005 (ip), vehicle: Klucel (hydroxypropylcellulose) (HPC)

Measured: T/C

COC(=O)/C=C(\C)Oc1c(Cl)c(Cl)c(Cl)c(Cl)c1Cl
inactive: dose: 50.0 mg/kg/injection, schedule: Q04DX003 (ip), vehicle: saline sonified 110 % of control | [1] 91 % of control | dose: 100.0 mg/kg/injection, schedule: Q04DX003 (ip), vehicle: saline sonified 110 % of control | [2] 100 % of control | dose: 200.0 mg/kg/injection, schedule: Q04DX003 (ip), vehicle: saline sonified 110 % of control | dose: 400.0 mg/kg/injection, schedule: Q01DX009 (ip), vehicle: saline with Tween-80 91 % of control

CC(C)NCC(O)c1ccc(O)c2ncccc12 (configuration not stated)
inactive: dose: 50.0 mg/kg/injection, schedule: Q01DX005 (ip), vehicle: saline 100 % of control | dose: 100.0 mg/kg/injection, schedule: Q01DX005 (ip), vehicle: saline 100 % of control | dose: 200.0 mg/kg/injection, schedule: Q01DX005 (ip), vehicle: saline 101 % of control

Cc1ccc(S(=O)(=O)OCCN2CC2)cc1
inactive: [3] 94 % of control | [1] 89 % of control | [2] 99 % of control

CCC[CH2][Sn]([Cl])([Cl])[CH2]CCC.c1ccc(-c2nnc(-c3ccccn3)nc2-c2ccccc2)cc1
inactive: [4] 106 % of control | [5] 106 % of control

O=C1Nc2ccccc2C1=O
inactive: [3] 100 % of control | [1] 101 % of control | [2] 105 % of control

COC(=O)c1cc2nc(C(C)C)n(Cc3ccccc3)c2cc1C(=O)OC
inactive: dose: 60.0 mg/kg/injection, schedule: Q01DX005 (ip), vehicle: saline with Tween-80 92 % of control | dose: 120.0 mg/kg/injection, schedule: Q01DX005 (ip), vehicle: saline with Tween-80 92 % of control | dose: 240.0 mg/kg/injection, schedule: Q01DX005 (ip), vehicle: saline with Tween-80 90 % of control

N#CCCP(=O)(O)CCC#N
inactive: dose: 60.0 mg/kg/injection, schedule: Q01DX005 (ip), vehicle: saline 100 % of control | dose: 120.0 mg/kg/injection, schedule: Q01DX005 (ip), vehicle: saline 100 % of control | dose: 240.0 mg/kg/injection, schedule: Q01DX005 (ip), vehicle: saline 90 % of control

O=C(O)CSC(=S)CCCCCCCCCCC(=S)SCC(=O)O
inactive: dose: 12.5 mg/kg/injection, schedule: Q01DX005 (ip), vehicle: saline with Tween-80 111 % of control | dose: 25.0 mg/kg/injection, schedule: Q01DX005 (ip), vehicle: saline with Tween-80 109 % of control | dose: 50.0 mg/kg/injection, schedule: Q01DX005 (ip), vehicle: saline with Tween-80 116 % of control and 118 % of control

CC12CCC3C(CCC4N(CCCl)CCCC34C)C1CCC2O (configuration not stated)
inactive: dose: 25.0 mg/kg/injection, schedule: Q01DX001 (ip), vehicle: saline 101 % of control | dose: 50.0 mg/kg/injection, schedule: Q01DX001 (ip), vehicle: saline 109 % of control | dose: 100.0 mg/kg/injection, schedule: Q01DX001 (ip), vehicle: saline 111 % of control

O=c1[nH]cnc2nc(SCc3ccc([N+](=O)[O-])cc3)[nH]c12
inactive: [4] 105 % of control | [5] 102 % of control | dose: 240.0 mg/kg/injection, schedule: Q01DX005 (ip), vehicle: Klucel (hydroxypropylcellulose) (HPC) 108 % of control

C[n+]1ccccc1/C=C/c1ccc2c(c1)OCO2
inactive: dose: 6.25 mg/kg/injection, schedule: Q01DX009 (ip), vehicle: Klucel (hydroxypropylcellulose) (HPC) 102 % of control | dose: 12.5 mg/kg/injection, schedule: Q01DX009 (ip), vehicle: Klucel (hydroxypropylcellulose) (HPC) 98 % of control | dose: 25.0 mg/kg/injection, schedule: Q01DX009 (ip), vehicle: Klucel (hydroxypropylcellulose) (HPC) 110 % of control | dose: 50.0 mg/kg/injection, schedule: Q01DX009 (ip), vehicle: Klucel (hydroxypropylcellulose) (HPC) 114 % of control

C=Cc1c(C)c2cc3[nH]c(cc4nc(cc5nc(cc1[nH]2)C(C)=C5CCC(=O)OC)C(CCC(=O)OC)=C4C)c(C)c3C#N
inactive: dose: 50.0 mg/kg/injection, schedule: Q01DX005 (ip), vehicle: Klucel (hydroxypropylcellulose) (HPC) 107 % of control | dose: 100.0 mg/kg/injection, schedule: Q01DX005 (ip), vehicle: Klucel (hydroxypropylcellulose) (HPC) 109 % of control | dose: 200.0 mg/kg/injection, schedule: Q01DX005 (ip), vehicle: Klucel (hydroxypropylcellulose) (HPC) 111 % of control

CC(=O)Nc1cc2nc[nH]c2cn1
inactive: dose: 100.0 mg/kg/injection, schedule: Q04DX002 (ip), vehicle: saline 99 % of control | dose: 200.0 mg/kg/injection, schedule: Q04DX002 (ip), vehicle: saline 106 % of control | dose: 400.0 mg/kg/injection, schedule: Q04DX002 (ip), vehicle: saline 106 % of control

Reference: PubChem BioAssay AID330 (DTP/NCI, 2004)
